Data on ten compounds can be found in patent publication US7019019B2, “Matriptase inhibitors and methods of use” (Dendreon Corporation, priority 2002, dated 2006).

Common to all, as to assay type: biochemical
One test has as its target T1, Matriptase (Homo sapiens, UniProt Q9Y5Y6).
T1 sequence (Q9Y5Y6 1-855 C731S): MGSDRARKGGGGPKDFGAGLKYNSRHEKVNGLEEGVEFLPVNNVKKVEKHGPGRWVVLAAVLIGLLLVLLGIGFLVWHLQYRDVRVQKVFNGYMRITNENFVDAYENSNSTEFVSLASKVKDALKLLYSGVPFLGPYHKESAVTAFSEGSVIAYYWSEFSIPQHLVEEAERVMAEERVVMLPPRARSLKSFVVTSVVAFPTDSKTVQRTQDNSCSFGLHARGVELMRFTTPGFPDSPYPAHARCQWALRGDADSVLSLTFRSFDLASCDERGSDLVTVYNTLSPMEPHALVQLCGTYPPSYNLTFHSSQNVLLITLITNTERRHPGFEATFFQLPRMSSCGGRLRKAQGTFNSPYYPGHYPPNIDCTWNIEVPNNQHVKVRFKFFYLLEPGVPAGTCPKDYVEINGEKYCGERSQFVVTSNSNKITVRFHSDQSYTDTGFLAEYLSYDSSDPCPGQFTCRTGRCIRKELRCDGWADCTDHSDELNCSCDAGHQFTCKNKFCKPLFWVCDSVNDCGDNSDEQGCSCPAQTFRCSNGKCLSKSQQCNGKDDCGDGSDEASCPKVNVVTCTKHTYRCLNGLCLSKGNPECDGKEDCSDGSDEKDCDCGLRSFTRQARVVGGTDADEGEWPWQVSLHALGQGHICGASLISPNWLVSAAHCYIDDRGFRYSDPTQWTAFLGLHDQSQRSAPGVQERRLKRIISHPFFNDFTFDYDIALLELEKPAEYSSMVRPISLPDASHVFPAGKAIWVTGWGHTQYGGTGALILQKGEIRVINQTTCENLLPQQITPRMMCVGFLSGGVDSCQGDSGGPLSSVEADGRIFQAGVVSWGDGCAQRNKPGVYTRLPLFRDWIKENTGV
The experiment in a line: Amidolytic assay for inhibition of serine protease activity of matriptase or MTSP1.

The target in test [1] is T2, (Homo sapiens, UniProt Q9UL52).
T2 sequence (Q9UL52 192-423): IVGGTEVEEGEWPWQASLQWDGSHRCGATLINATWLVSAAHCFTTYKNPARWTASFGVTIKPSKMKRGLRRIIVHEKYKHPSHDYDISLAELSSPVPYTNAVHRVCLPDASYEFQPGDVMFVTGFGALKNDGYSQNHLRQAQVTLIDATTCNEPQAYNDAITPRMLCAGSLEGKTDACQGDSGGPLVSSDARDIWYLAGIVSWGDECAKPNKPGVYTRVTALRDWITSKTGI
The experiment in a line: In vitro enzyme assay for specificity: Endothelin 1.

In another test the target is α-thrombin (Homo sapiens, UniProt P00734). The experiment in a line: Thrombin (fIIa) chromogenic assay (Pefachrome t-PA). How it is done: (§1) The ability of compounds to act as a selective inhibitor of matriptase activity was assessed by determining the concentration of test-compound which inhibited the activity of matriptase by 50%, (IC50) as described in Example A, and comparing IC50 value for matriptase to that determined for all or some of the following serine proteases: thrombin, recombinant tissue plasminogen activator (rt-PA), plasmin, activated protein C, chymotrypsin, factor Xa and trypsin.
(§2) The buffer used for all assays was HBSA (10 mM HEPES, pH 7.5, 150 mM sodium chloride, 0.1% bovine serum albumin).
(§3) The assay for IC50 determinations was conducted by combining in appropriate wells of a Corning microtiter plate, 50 microliters of HBSA, 50 microliters of the test compound at a specified concentration (covering a broad concentration range) diluted in HBSA (or HBSA alone for V0 (uninhibited velocity) measurement), and 50 microliters of the enzyme diluted in HBSA. Following a 30 minute incubation at ambient temperature, 50 microliters of the substrate at the concentrations specified below were added to the wells, yielding a final total volume of 200 microliters. The initial velocity of chromogenic substrate hydrolysis was measured by the change in absorbance at 405 nm using a Thermo Max® Kinetic Microplate Reader over a 5 minute period in which less than 5% of the added substrate was utilized. The concentration of added inhibitor which caused a 50% decrease in the initial rate of hydrolysis was defined as the IC50 value.
Enzyme activity was determined using the chromogenic substrate, Pefachrome t-PA (CH3SO2-D-hexahydrotyrosine-glycyl-L-Arginine-p-nitroaniline, obtained from Pentapharm Ltd.). The substrate was reconstituted in deionized water prior to use.
The initial velocity of Pefachrome t-PA hydrolysis was measured by the change in absorbance at 405 nm using a Thermo Max® Kinetic Microplate Reader over a 5 minute period in which less than 5% of the added substrate was utilized. The concentration of added inhibitor which caused a 50% decrease in the initial rate of hydrolysis was defined as the IC50 value.

The target in test [2] is T3, (Homo sapiens, UniProt Q9BYE2).
T3 sequence (Q9BYE2 326-586): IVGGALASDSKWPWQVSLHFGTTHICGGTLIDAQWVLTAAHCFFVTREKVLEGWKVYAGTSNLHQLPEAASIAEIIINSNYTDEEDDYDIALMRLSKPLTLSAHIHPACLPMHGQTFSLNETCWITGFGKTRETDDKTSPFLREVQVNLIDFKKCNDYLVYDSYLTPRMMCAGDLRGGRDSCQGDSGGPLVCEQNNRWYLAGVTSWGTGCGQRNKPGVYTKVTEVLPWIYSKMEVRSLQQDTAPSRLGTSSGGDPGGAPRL
The experiment in a line: In vitro enzyme assay for specificity: Endothelin 2.

The next test concerns the target T4, Factor Xa (Homo sapiens, UniProt P00742).
T4 construct: purchased Enzyme Research Laboratories, Inc. (South Bend, Ind.)
Put plainly: Factor Xa chromogenic assay (S-2765). Particulars: read-out: Ki FXa. On the procedure: as §1, §2
as §3, with “The concentration of added inhibitor which caused a 50% decrease in the initial rate of hydrolysis was defined as the IC50 value.” left out
Factor Xa catalytic activity was determined using the chromogenic substrate S-2765 (N-benzyloxycarbonyl-D-arginine-L-glycine-L-arginine-p-nitro aniline), obtained from DiaPharma Group (Franklin, Ohio). All substrates were reconstituted in deionized water prior to use. […] Purified human Factor X was obtained from Enzyme Research Laboratories, Inc. (South Bend, Ind.) and Factor Xa (FXa) was activated and prepared from it as described [Bock, P. E., Craig, P. A., Olson, S. T., and Singh, P. Arch. Biochem. Biophys. 273:375-388 (1989)]. The enzyme was diluted into HBSA prior to assay in which the final concentration was 0.25 nM.

For the next test, the target named is plasmin (Homo sapiens, UniProt P00747). Put plainly: Plasmin chromogenic assay (S-2366). On the procedure:
as §1, §2, §3
Plasmin catalytic activity was determined using the chromogenic substrate, S-2366 [L-pyroglutamyl-L-prolyl-L-arginine-p-nitroaniline hydrochloride], which was obtained from DiaPharma group. The substrate was made up in deionized water followed by dilution in HBSA prior to the assay in which the final concentration was 300 micromolar (about 2.5-times Km). Purified human plasmin was obtained from Enzyme Research Laboratories, Inc. The enzyme was diluted into HBSA prior to assay in which the final concentration was 1.0 nM.

T4 sequence (P00742 235-488 limits assumed): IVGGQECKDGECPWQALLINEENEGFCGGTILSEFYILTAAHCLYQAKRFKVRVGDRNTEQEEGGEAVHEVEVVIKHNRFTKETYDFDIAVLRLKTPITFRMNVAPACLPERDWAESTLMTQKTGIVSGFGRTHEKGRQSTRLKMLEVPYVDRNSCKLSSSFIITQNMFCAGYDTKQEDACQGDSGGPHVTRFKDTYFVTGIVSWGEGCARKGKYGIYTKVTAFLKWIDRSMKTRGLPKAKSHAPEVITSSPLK
T4 sequence (P00742 41-179 partner limits assumed): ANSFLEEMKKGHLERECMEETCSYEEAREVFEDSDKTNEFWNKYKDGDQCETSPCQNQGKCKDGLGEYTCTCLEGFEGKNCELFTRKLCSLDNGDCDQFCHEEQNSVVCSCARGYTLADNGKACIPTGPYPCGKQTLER
plasmin, sequence (P00747 581-810 limits assumed): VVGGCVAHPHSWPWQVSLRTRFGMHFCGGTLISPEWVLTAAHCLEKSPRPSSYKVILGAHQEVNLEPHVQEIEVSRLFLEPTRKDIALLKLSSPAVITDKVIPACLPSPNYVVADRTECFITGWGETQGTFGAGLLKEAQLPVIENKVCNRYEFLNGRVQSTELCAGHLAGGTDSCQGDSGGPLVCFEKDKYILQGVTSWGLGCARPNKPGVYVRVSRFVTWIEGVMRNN
plasmin, sequence (P00747 97-580 partner limits assumed): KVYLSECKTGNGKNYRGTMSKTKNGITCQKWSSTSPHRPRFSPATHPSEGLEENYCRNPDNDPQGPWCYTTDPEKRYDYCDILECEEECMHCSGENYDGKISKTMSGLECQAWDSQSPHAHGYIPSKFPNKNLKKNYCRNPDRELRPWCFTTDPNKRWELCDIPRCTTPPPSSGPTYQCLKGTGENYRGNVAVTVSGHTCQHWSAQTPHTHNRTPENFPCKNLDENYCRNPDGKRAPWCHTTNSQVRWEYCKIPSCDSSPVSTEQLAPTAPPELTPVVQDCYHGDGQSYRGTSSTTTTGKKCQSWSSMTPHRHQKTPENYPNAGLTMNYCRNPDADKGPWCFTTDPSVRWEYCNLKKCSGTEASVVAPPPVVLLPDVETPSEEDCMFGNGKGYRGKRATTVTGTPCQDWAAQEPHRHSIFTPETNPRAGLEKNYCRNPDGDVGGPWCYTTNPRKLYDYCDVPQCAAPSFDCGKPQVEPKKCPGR

The term Ki denotes a dissociation constant, usually derived from enzyme kinetics or from competition with a known ligand. Regarding “3(3-Amdn)Bn-3(Methsulfone)hydantoin-G-(2-Amdn)thiazole-2-MeAm”, the Ki at Matriptase was 0.1 to 0.25 µM; in test [1] it was above 2.5 µM; at α-thrombin, above 2.5 µM; in test [2], above 2.5 µM; at Factor Xa, above 2.5 µM.
At Matriptase, `COC(=O)CCC(N)(Cc1cccc(C(=N)N)c1)C(=O)NCC(=O)NCc1ccc(C(=N)N)s1` (stereo not drawn) [(Me)E(alpha-(3-Amdn)Bn)-G-(2-Amdn)thiophene-5MeAm] yielded a Ki of 0.1 to 0.25 µM.
Turning to `N=C(N)c1cccc(CC(N)(CCC(=O)O)C(=O)NCC(=O)NCc2ccc(C(=N)N)s2)c1` (stereo not drawn) [E(alpha-(3-Amdn)Bn)-G-(2-Amdn)thiophene-5MeAm], the Ki lay within 0.5 to 2.5 µM on plasmin, 0.1 to 0.25 µM at Matriptase, 0.5 to 2.5 µM on α-thrombin and 0.5 to 2.5 µM on Factor Xa.
Regarding `COC(=O)N[C@](CCC(=O)OC(C)(C)C)(Cc1cccc(C(=N)N)c1)C(=O)NCC(=O)NCc1ccc(C(=N)N)s1` [MeOCO(t-Bu)E(R)(alpha-(3-Amdn)Bn)-G-(2-Amdn)thiophene-5-MeAm], the Ki at plasmin was above 2.5 µM; at Matriptase, below 0.1 µM; on α-thrombin, above 2.5 µM; at Factor Xa it was 0.5 to 2.5 µM.
Take `COC(=O)CC[C@](Cc1cccc(C(=N)N)c1)(NC(=O)OC)C(=O)NCC(=O)NCc1nc(C(=N)N)cs1` [MeOCO-(Me)E(α-(3-Amdn)Bn)-G-(4-Amdn)thiazole-2-MeAm]: the Ki was 0.25 to 0.5 µM at Matriptase, above 2.5 µM at α-thrombin and above 2.5 µM at Factor Xa.
Consider `COC(=O)NC(CCC(=O)OC(C)(C)C)(Cc1cccc(C(=N)N)c1)C(=O)NCC(=O)NCc1ccc(C(=N)N)cc1` (stereo not drawn) [MeOCO-E(O-t-Butyl)(alpha-(3-Amdn)Bn)-G-(4-Amdn)BnAm], for which the figures for the Ki at Matriptase, on α-thrombin and on Factor Xa were 0.1 to 0.25 µM, 0.25 to 0.5 µM and above 2.5 µM, respectively.
In the case of `COC(=O)NC(CCS(C)(=O)=O)(Cc1ccnc(N)c1)C(=O)NCC(=O)NCc1ccc(C(=N)N)s1` (stereo not drawn) [N-MeOCO-(α-(3-Am)4-pyrMe)M(O2)-G-(2-Amdn)thiophene-5-MeAm], the Ki is 0.1 to 0.25 µM at Matriptase, above 2.5 µM on α-thrombin and 0.25 to 0.5 µM on Factor Xa.
On to `N=C(N)c1cccc(C[C@@]2(C(=O)NCC(=O)NCc3ccc(C(=N)N)s3)CCC(=O)N2)c1` [α-(3-Amdn)BnPyro-G-(2-Amdn)thiophene-5-MeAm], for which the Ki on plasmin was 0.5 to 2.5 µM; at Matriptase it was below 0.1 µM; at α-thrombin, 0.5 to 2.5 µM; on Factor Xa, above 2.5 µM.
“alpha-(3-amidinoBn)MeSO2-G-(2-Amdn)thiophene-5-MeAm”: the Ki on plasmin was above 2.5 µM; at Matriptase, below 0.1 µM; in test [1], above 2.5 µM; on Factor Xa it was 0.5 to 2.5 µM.
For the compound “iBoc-(Me)E(R)(alpha-(3-Amdn)Bn)-G-(2-Amdn)thiophene-5MeAm”, the Ki at Matriptase and on α-thrombin was 0.25 to 0.5 µM throughout.
